According to patent US5348956A, “Substituted cyclopropylamino-1,3,5-triazines” (UCB S.A., priority 1991, dated 1994):

Legend:
[1] = test system: anaphylactic release of histamine, guinea-pig lung sections; test: potentiation of the inhibition of anaphylactic histamine release by isoprenaline; type: cell-based, Dunkin-Hartley guinea-pigs; details: with isoprenaline 10^-7 mole per liter
cAMP in PMN granulocytes = test: increase in the level of cAMP in PMN granulocytes; type: cell-based, Rat; details: […]10^-6 mole per liter; PGE1 10^-6 mole/liter; control 4.3
Source text: Polymorphonuclear neutrophil granulocytes (PMN) are cells which are mobilized during inflammatory phenomena and which can be stimulated by various compounds, such as, for example, formylmethionyl-leucylphenylalanine (FMLP) or prostaglandins E (PGE1). The PMN granulocytes respond to these extracellular stimuli with an activation of the oxygen metabolism with release of toxic oxygenated metabolites. An excessive response of the PMN granulocytes may be the cause of a painful inflammation and is also accompanied by a reduction in the level of cyclic adenosine monophosphate (cAMP) in these granulocytes. […] The reaction is then stopped by addition of 1 ml of propanol. After centrifugation at 15,000 g for 3 minutes, the supernatant is recovered and evaporated and the amount of cAMP in the residue is determined by radioimmunological assay according to the process recommended by the supplier of the reagent used for this purpose (Amersham). A control test is carried out under the same conditions, but in the absence of the compound to be tested.

[2] = test system: bronchospasm induced by histamine; test: bronchospasmolytic activity (Konzett and Roessler), bronchospasm induced by histamine; type: in vivo, Dunkin-Hartley guinea-pig; details: Cavia porcellus; intravenous; histamine-induced bronchospasm; read-out: Doses (ID50), Histamine
Summary of the method: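 Anesthetized (urethane), curarized, ventilated Dunkin-Hartley guinea-pigs with endotracheal pressure recorded after histamine, serotonin or acetylcholine challenge. Compound given i.v. 2 min before spasmogen, then in 3–4 increasing cumulative doses at 15-min intervals; six animals per compound and spasmogen.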

[3] = multiple-trial passive avoidance: learning; type: in vivo, male Sprague-Dawley rats
Experimental: To evaluate whether a compound can promote learning, the following test is carried out. […] Rats which remain on the mat for this period have acquired the avoidance reflex and are replaced in their original cage without receiving the electric shock. […] The results obtained in the test used to evaluate learning are given in columns 3 and 4. […] The results were analyzed by the Student test.

PMN granulocytes = test: inhibition of the stimulation of PMN granulocytes (chemiluminescence); type: cell-based, Rat; details: Rattus norvegicus; 10^-6 mole/l; FMLP 3.2×10^-7 mole/liter; read-out: Residual chemiluminescence
Source text: Polymorphonuclear neutrophil granulocytes (PMN) are cells which are mobilized during inflammatory phenomena and which can be stimulated by various compounds, such as, for example, formylmethionyl-leucylphenylalanine (FMLP) or prostaglandins E (PGE1). The PMN granulocytes respond to these extracellular stimuli with an activation of the oxygen metabolism with release of toxic oxygenated metabolites. An excessive response of the PMN granulocytes may be the cause of a painful inflammation and is also accompanied by a reduction in the level of cyclic adenosine monophosphate (cAMP) in these granulocytes. Consequently, compounds which inhibit the respiratory burst of PMN granulocytes or which increase the level of cAMP can be regarded as very important in the treatment of arthritis and asthma. […] Rat PMN granulocytes (5×10^6 /ml) are preincubated in a phosphate buffer ([…], pH 7.4), containing luminol at a concentration of 10^-5 mole per liter, for 15 minutes at 37° C. and then for 5 minutes in the presence of the compound to be treated at a concentration of 10^-6 mole/liter. […] The luminescence which results from the stimulation is measured by means of an LKB 1251 luminometer according to the method of […] and […] (Infection and Immunology, 37, (1982), 34-39). An experimental cycle lasts 38 seconds. The reaction is repeated 9 times for each compound to be tested and the average of the results obtained is calculated.

serotonergic activity = test: "wet dog shake" (WDS) behavior, serotonergic activity; type: in vivo, male Sprague-Dawley rats; details: counted over 30 minutes
Experimental: A decrease in serotonergic activity has been correlated with the occurrence of affective disorders, such as depression and anxiety. […] The test is carried out in the morning on male Sprague-Dawley rats (±180 g), divided the previous day into groups of 8 animals in residence cages. The cage used for the tests is a transparent enclosure of 12×24×30 cm in height, the floor of which is covered with a layer of sand. The compounds to be tested, dissolved either in physiological salt solution or in a citrate buffer of pH 5, are administered intraperitoneally in a different dose for each group treated. The control groups receive an intraperitoneal injection of the same vehicle (either physiological salt solution or citrate buffer). […] The mean values of the results are calculated and analyzed statistically by the Mann-Whitney method. The mean values of the number of shakes obtained for the compounds according to the invention administered intraperitoneally at the doses indicated (in mg/kg) are given in Table V below.

CCCc1nc(NC2CC2)nc(N2CCOCC2)n1 [Compound 1, 2-Cyclopropylamino-4-morpholino-6-n-propyl-1,3,5-triazine]
Minimum potentiating dose (MPD) [1]: 0.32 µmol/L | Amount of cAMP produced (cAMP in PMN granulocytes): 21.0 picomoles per 10^7 cells | ED50 [2]: 0.01 µmol/kg | Learning, average number of trials, group 2 ([3]; 3.0 mg/kg i.p.): 1.4 trials | activity at 1 µM (PMN granulocytes): 47% | Average number of shakes (serotonergic activity; 1.0 mg/kg i.p.): 7.8 ± 1.6 shakes

CCc1nc(NC2CC2)nc(N2CCOCC2)n1 [Compound 2]
Minimum potentiating dose (MPD) [1]: 3.2 µmol/L | ED50 [2]: 0.3 µmol/kg | Learning, average number of trials, group 2 ([3]; 1.0 mg/kg i.p.): 2.7 trials | activity at 1 µM (PMN granulocytes): 68% | Average number of shakes (serotonergic activity; 1.0 mg/kg i.p.): 10.0 ± 3.5 shakes

C1CN(c2nc(NC3CC3)nc(C3CC3)n2)CCO1.Cl [Compound 3, 2-cyclopropyl-4-cyclopropylamino-6-morpholino-1,3,5-triazine hydrochloride]
Minimum potentiating dose (MPD) [1]: 0.32 µmol/L | Amount of cAMP produced (cAMP in PMN granulocytes): 23.2 picomoles per 10^7 cells | ED50 [2]: 0.03 µmol/kg | Learning, average number of trials, group 2 ([3]; 1.0 mg/kg i.p.): 1.9 trials | activity at 1 µM (PMN granulocytes): 39% | Average number of shakes (serotonergic activity; 0.3 mg/kg i.p.): 5.1 ± 1.0 shakes | Average number of shakes (serotonergic activity; 1.0 mg/kg i.p.): 11.9 ± 2.7 shakes

C1CC(c2nc(NC3CC3)nc(N3CCOCC3)n2)C1 [Compound 4, 2-cyclobutyl-4-cyclopropylamino-6-morpholino-1,3,5-triazine]
Minimum potentiating dose (MPD) [1]: 0.1 µmol/L | Amount of cAMP produced (cAMP in PMN granulocytes): 17.7 picomoles per 10^7 cells | ED50 [2]: 0.004 µmol/kg | Learning, average number of trials, group 2 ([3]; 2.8 mg/kg i.p.): 1.9 trials | activity at 1 µM (PMN granulocytes): 45% | Average number of shakes (serotonergic activity; 2.8 mg/kg i.p.): 10.6 ± 4.3 shakes

CCCc1nc(NC2CC2)nc(N2CCC(O)CC2)n1 [Compound 5]
Minimum potentiating dose (MPD) [1]: 3.2 µmol/L | Amount of cAMP produced (cAMP in PMN granulocytes): 11.6 picomoles per 10^7 cells | ED50 [2]: 0.06 µmol/kg | Learning, average number of trials, group 2 ([3]; 2.8 mg/kg i.p.): 2.3 trials | activity at 1 µM (PMN granulocytes): 74% | Average number of shakes (serotonergic activity; 2.8 mg/kg i.p.): 8.4 ± 1.6 shakes

CCCc1nc(NC2CC2)nc(N(CCO)CCO)n1 [Compound 6]
Minimum potentiating dose (MPD) [1]: 1.0 µmol/L | Amount of cAMP produced (cAMP in PMN granulocytes): 14.6 picomoles per 10^7 cells | ED50 [2]: 0.1 µmol/kg | activity at 1 µM (PMN granulocytes): 55% | Average number of shakes (serotonergic activity; 1.0 mg/kg i.p.): 1.9 ± 0.5 shakes

OCCN(CCO)c1nc(NC2CC2)nc(C2CC2)n1 [Compound 7]
Minimum potentiating dose (MPD) [1]: 1.0 µmol/L | Amount of cAMP produced (cAMP in PMN granulocytes): 15.8 picomoles per 10^7 cells | ED50 [2]: 0.2 µmol/kg | Learning, average number of trials, group 2 ([3]; 2.8 mg/kg i.p.): 1.9 trials | activity at 1 µM (PMN granulocytes): 54% | Average number of shakes (serotonergic activity; 2.8 mg/kg i.p.): 7.9 ± 1.8 shakes

CCCc1nc(NC2CC2)nc(N2CC3CCC(C2)O3)n1 [Compound 11]
Minimum potentiating dose (MPD) [1]: 0.32 µmol/L | Amount of cAMP produced (cAMP in PMN granulocytes): 16.2 picomoles per 10^7 cells | ED50 [2]: 0.1 µmol/kg | Learning, average number of trials, group 2 ([3]; 3.3 mg/kg i.p.): 1.8 trials | activity at 1 µM (PMN granulocytes): 44% | Average number of shakes (serotonergic activity; 1.1 mg/kg i.p.): 4.3 ± 1.4 shakes

CC(C)c1nc(NC2CC2)nc(N2CC3CCC(C2)O3)n1 [Compound 12]
Minimum potentiating dose (MPD) [1]: 0.1 µmol/L | Amount of cAMP produced (cAMP in PMN granulocytes): 16.8 picomoles per 10^7 cells | ED50 [2]: 0.04 µmol/kg | Learning, average number of trials, group 2 ([3]; 1.0 mg/kg i.p.): 1.7 trials | activity at 1 µM (PMN granulocytes): 36%

OC1CN(c2nc(NC3CC3)nc(C3CC3)n2)C1 [Compound 13]
Minimum potentiating dose (MPD) [1]: 1.0 µmol/L | ED50 [2]: 0.1 µmol/kg | Learning, average number of trials, group 2 ([3]; 2.5 mg/kg i.p.): 2.1 trials | activity at 1 µM (PMN granulocytes): 79% | Average number of shakes (serotonergic activity; 2.5 mg/kg i.p.): 5.6 ± 1.8 shakes

COC1CN(c2nc(NC3CC3)nc(C3CC3)n2)C1 [Compound 14]
Minimum potentiating dose (MPD) [1]: 0.32 µmol/L | ED50 [2]: 0.09 µmol/kg | Learning, average number of trials, group 2 ([3]; 2.6 mg/kg i.p.): 1.5 trials | activity at 1 µM (PMN granulocytes): 51% | Average number of shakes (serotonergic activity; 0.8 mg/kg i.p.): 2.1 ± 0.7 shakes

C1CC1Nc1nc(C2CC2)nc(N2CC3CCC(C2)O3)n1 [Compound 16]
Minimum potentiating dose (MPD) [1]: 0.032 µmol/L | ED50 [2]: 0.009 µmol/kg | Learning, average number of trials, group 2 ([3]; 3.25 mg/kg i.p.): 2.2 trials | activity at 1 µM (PMN granulocytes): 42% | Average number of shakes (serotonergic activity; 1.0 mg/kg i.p.): 10.6 ± 1.8 shakes
